Assay results published in PMC12587545, “Noncytotoxic polymyxin derivatives enhance antibiotic action against multidrug-resistant Gram-negative bacteria” (Antimicrobial Agents and Chemotherapy, 2025).
Values joined by “and” are separate entries in the source; they are usually repeats but may differ in a detail not shown here. Identical values can stand only once. Positions of bridges follow the written chain, without caps; N, C: chain ends. Non-standard residues stand in square brackets, D forms with d. Residues, ends and D or L forms follow the SMILES beside them. *: point of attachment. Octanoyl = CCCCCCCC(=O)*; Dab = NCC[C@H](N)C(=O)O; Dap = NC[C@H](N)C(=O)O

Legend:
[1] = test system: P. aeruginosa; experiment: Checkerboard assay (antibiotic potentiation); format: cell-based, Pseudomonas aeruginosa; conditions: for MICcompound 1: compound 1 alone
[2] = test system: A. baumannii; experiment: Checkerboard assay (antibiotic potentiation); format: cell-based, Acinetobacter baumannii; conditions: compound 1 alone
[3] = test system: E. coli; experiment: Checkerboard assay (antibiotic potentiation); format: cell-based, Escherichia coli; conditions: compound 1 alone
[4] = test system: K. pneumoniae; experiment: Checkerboard assay (antibiotic potentiation); format: cell-based, Klebsiella pneumoniae; conditions: compound 1 alone
[5] = test system: E. cloacae; experiment: Checkerboard assay (antibiotic potentiation); format: cell-based, Enterobacter cloacae; conditions: E. cloacae 121887 (colistin-resistant); compound 1 alone
[6] = test system: E. faecalis ATCC 29212; experiment: Checkerboard assay (rifampicin potentiation); format: cell-based; conditions: compound 1 alone
Description: (§1) The interaction between the compounds and the antibiotics was evaluated using the fractional inhibitory concentration (FIC) index. FIC indices of ≤0.5 is synergistic, 0.5 < × ≤ 4 is additive, whereas >4 is antagonistic ([34]). […] .
(§2) The bacterial isolates were acquired from ATCC or the Canadian Ward Surveillance (CANWARD) study ([56]). CANWARD isolates were collected from infected patients admitted to participating medical centers across Canada.
(§3) The antibiotic and compounds were serially diluted 2-fold in CAMHB along the x- and y-axis, respectively, on a 96-well plate that was subsequently incubated with equal volumes of bacterial inoculum overnight at 37°C. Wells containing only media were used as negative controls, and wells containing only bacteria were used as positive controls. Synergy was measured by the FIC index, which is the summation of the individual FICs of the antibiotic and the compound. The FIC is calculated by dividing the MIC of one agent in the presence of another by the MIC of the agent alone. Turbidity was confirmed with a Molecular Devices (United States) EMax Plus microplate reader at a wavelength of 590 nm. The FBS studies were conducted by following a previously published protocol ([29], [50]). The FBS was inactivated by heating at 56°C for 30 min with constant swirling.

[7] = test system: E. faecium ATCC 27270; experiment: Checkerboard assay (rifampicin potentiation); format: cell-based; conditions: compound 1 alone
Description: as §1, §2, §3

[8] = test system: Methicillin-resistant S. aureus ATCC 22592; experiment: Checkerboard assay (rifampicin potentiation); format: cell-based; conditions: MRSA ATCC 22592; compound 1 alone
Description: as §1, §2, §3

[9] = test system: P. aeruginosa 259-96916; experiment: Time-kill kinetics assay; conditions: monotherapy at 8 µg/mL, LB, 37°C, up to 24 h
[10] = test system: A. baumannii AB027; experiment: Time-kill kinetics assay; conditions: monotherapy at 8 µg/mL, LB, 37°C, up to 24 h
Description: Bactericidal and bacteriostatic activity correspond to a ≥ 3 log10 and a < 3 log10 decrease in bacterial load after 24 h relative to the starting inoculum, respectively ([39]).
The time- and concentration-dependent killing of the antibiotic/compound combinations was assessed using the time-kill kinetics assay by following a previously described protocol ([27][–][29]). Bacterial culture grown overnight was diluted in phosphate-buffered saline (PBS) to 0.5 McFarland turbidity and was further diluted 1:50 in LB. Bacterial cultures treated with varying concentrations of antibiotic alone, compound alone, or the combination of antibiotic and compound were incubated in a shaking incubator at 250 rpm and at 37°C. At designated time points, 100 µL aliquots were taken from the culture tubes, serially diluted in PBS, and plated on LB agar plates. The bacterial colonies were then counted after incubation of the plates for 18 h at 37°C.

In the case of CCCCCCCC(=O)N[C@@H](CN)C(=O)N[C@H](C(=O)N[C@@H](CN)C(=O)N[C@H]1CCNC(=O)[C@H]([C@@H](C)O)NC(=O)[C@H](CN)NC(=O)[C@H](CN)NC(=O)[C@H](CC(C)C)NC(=O)[C@@H](Cc2ccccc2)NC(=O)[C@H](CN)NC1=O)[C@@H](C)O [Compound 1] (Octanoyl-[Dap]T[Dap][Dab][Dap][dF]L[Dap][Dap]T; lactam 4-C), the “MICcompound 1” value ([1]; P. aeruginosa 259-96916) is reported as greater than 128 µg/mL, the “MICcompound 1” value ([1]; P. aeruginosa 262-101856) is reported as greater than 128 µg/mL and the “MICcompound 1” value ([1]; P. aeruginosa 264-105354) is reported as greater than 128 µg/mL. The “MICcompound 1” value ([1]; P. aeruginosa 101243 (colistin-resistant)) was greater than 128 µg/mL, the “MICcompound 1” value ([1]; P. aeruginosa 114228 (colistin-resistant)) was greater than 128 µg/mL and the “MICcompound 1” value ([1]; P. aeruginosa PAO1, 0% FBS) was greater than 128 µg/mL. The “MICcompound 1” value ([1]; P. aeruginosa PAO1, 10% FBS (heat-inactivated)) was greater than 128 µg/mL, the “MICcompound 1” value ([1]; P. aeruginosa PAO1, 25% FBS) was greater than 128 µg/mL and the “MICcompound 1” value ([1]; P. aeruginosa PAO1, 50% FBS) was greater than 128 µg/mL. For the same compound, the “MICcompound 1” value ([1]; P. aeruginosa PAO1, [Mg2+] 25 mM) was greater than 128 µg/mL, the “MICcompound 1” value ([1]; P. aeruginosa PAO1, [Mg2+] 0.4–0.5 mM (CAMHB)) was greater than 128 µg/mL and the MICcompound ([1]; P. aeruginosa PAO1, compound alone) was greater than 128 µg/mL. The “MICcompound 1” value ([2]; A. baumannii 92247 (colistin-resistant)) was greater than 128 µg/mL, the “MICcompound 1” value ([2]; A. baumannii 110193) was 32 µg/mL and 16 µg/mL and the “MICcompound 1” value ([2]; A. baumannii AB027) was greater than 128 µg/mL. The “MICcompound 1” value ([2]; A. baumannii ATCC 17978, 0% FBS) was 16 µg/mL, the “MICcompound 1” value ([2]; A. baumannii ATCC 17978, 10% FBS (heat-inactivated)) was greater than 128 µg/mL and the “MICcompound 1” value ([2]; A. baumannii ATCC 17978, 25% FBS) was greater than 128 µg/mL. The “MICcompound 1” value ([2]; A. baumannii ATCC 17978, 50% FBS) was greater than 128 µg/mL, the “MICcompound 1” value ([2]; A. baumannii ATCC 17978, [Mg2+] 25 mM) was greater than 128 µg/mL and the “MICcompound 1” value ([2]; A. baumannii ATCC 17978, [Mg2+] 0.4–0.5 mM (CAMHB)) was 16 µg/mL. For the same compound, the “MICcompound 1” value ([3]; E. coli 94393 (colistin-resistant)) was greater than 128 µg/mL, the “MICcompound 1” value ([3]; E. coli 94474 (colistin-resistant)) was greater than 128 µg/mL and the “MICcompound 1” value ([4]; K. pneumoniae 113250 (colistin-resistant)) was greater than 128 µg/mL. The “MICcompound 1” value ([4]; K. pneumoniae 116381) was greater than 128 µg/mL, the “MICcompound 1” value [5] was greater than 128 µg/mL and the “MICcompound 1” value [6] was greater than 128 µg/mL. For the same compound, the “MICcompound 1” value [7] was greater than 128 µg/mL, the “MICcompound 1” value [8] was greater than 128 µg/mL and the “time-kill outcome” value [9] was “decrease in growth up to 4 h, with regrowth occurring at 8 h”. For the same compound, the “time-kill outcome” value [10] was “growth curves similar to that of untreated bacteria”.
